Some results are limits rather than exact numbers.

These results are taken from patent US9828381B2, “Substituted pyrazolopyrimidines and method of use” (AbbVie Deutschland GmbH & Co. KG, priority 2015, dated 2017).

This assay concerns the target GABA-B receptor (Rattus norvegicus (Rat), UniProt O88871+Q9Z0U4). Put plainly: [35S]GTPgS binding assay, rat cortical membranes, in presence of EC25 GABA. In kind it is biochemical. Particulars: rat brain cortex membranes; in presence of 1 μM GABA (EC25); positive allosteric modulation. Put shortly: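 Rat cortical membranes (10 µg) in Tris-HCl pH 7.7 with Mg2+, Ca2+, NaCl, EGTA and 20 µM GDP, plus 0.3 nM [35S]GTPγS and 1 µM GABA (EC25), were incubated with compound (10 nM–10 µM) 60 min at room temperature. Filter-bound counts were normalised basal 0%, 1 mM GABA 100%; EC50 from sigmoidal fit.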
A general note: GTPγS resists hydrolysis and so accumulates on activated G proteins.

GABA-B receptor, sequence (Q9Z0U4 17-960): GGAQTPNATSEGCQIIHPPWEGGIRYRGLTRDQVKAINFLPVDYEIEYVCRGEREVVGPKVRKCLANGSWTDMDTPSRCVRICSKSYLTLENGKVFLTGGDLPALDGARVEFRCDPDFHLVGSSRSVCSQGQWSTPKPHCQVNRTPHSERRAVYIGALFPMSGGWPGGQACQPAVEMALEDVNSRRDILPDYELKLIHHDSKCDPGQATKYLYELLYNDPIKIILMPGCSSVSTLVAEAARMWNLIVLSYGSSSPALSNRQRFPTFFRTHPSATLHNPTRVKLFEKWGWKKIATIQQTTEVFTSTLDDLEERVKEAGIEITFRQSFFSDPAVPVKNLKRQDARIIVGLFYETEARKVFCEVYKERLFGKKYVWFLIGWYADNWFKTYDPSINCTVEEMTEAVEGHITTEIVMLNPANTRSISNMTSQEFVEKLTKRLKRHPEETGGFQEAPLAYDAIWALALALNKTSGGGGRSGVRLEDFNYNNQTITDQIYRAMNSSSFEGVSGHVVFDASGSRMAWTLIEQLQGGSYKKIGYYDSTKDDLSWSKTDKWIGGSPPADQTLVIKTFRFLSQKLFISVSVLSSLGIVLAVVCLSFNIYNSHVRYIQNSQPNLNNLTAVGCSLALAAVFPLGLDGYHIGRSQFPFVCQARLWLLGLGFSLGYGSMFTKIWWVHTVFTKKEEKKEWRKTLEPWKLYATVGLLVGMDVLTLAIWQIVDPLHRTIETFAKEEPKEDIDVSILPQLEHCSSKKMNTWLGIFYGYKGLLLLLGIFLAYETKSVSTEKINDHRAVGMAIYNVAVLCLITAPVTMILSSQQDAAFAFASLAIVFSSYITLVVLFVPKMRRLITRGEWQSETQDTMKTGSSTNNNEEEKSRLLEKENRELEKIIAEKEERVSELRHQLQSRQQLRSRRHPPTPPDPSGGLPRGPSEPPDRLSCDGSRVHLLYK
GABA-B receptor, sequence (O88871 41-940): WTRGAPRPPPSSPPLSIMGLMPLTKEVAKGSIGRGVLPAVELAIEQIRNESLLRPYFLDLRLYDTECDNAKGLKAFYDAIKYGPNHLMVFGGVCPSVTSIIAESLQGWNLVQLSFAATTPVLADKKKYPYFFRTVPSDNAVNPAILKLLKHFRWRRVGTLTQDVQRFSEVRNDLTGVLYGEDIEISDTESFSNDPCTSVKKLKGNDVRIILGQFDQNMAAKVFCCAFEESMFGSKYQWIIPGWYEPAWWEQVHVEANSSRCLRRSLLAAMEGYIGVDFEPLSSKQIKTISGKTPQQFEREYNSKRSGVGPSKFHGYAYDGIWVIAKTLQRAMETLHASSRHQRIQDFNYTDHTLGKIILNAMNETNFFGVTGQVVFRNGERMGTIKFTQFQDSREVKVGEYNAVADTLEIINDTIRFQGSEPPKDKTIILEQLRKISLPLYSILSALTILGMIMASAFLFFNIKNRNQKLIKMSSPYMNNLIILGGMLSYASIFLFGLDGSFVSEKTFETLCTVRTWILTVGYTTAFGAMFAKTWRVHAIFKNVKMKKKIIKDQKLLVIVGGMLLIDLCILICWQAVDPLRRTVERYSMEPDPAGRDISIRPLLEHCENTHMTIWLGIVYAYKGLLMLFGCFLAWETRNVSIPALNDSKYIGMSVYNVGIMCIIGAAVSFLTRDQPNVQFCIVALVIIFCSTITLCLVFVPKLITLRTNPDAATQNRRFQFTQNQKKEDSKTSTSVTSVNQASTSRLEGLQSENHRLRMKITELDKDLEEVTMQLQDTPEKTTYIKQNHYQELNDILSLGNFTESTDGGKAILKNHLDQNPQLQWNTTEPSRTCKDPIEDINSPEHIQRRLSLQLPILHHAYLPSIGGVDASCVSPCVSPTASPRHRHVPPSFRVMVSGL

Take `Cc1cc(N2CCCC(CO)C2)n2nc(C(C)c3ccc(Cl)cn3)cc2n1` (centres unmarked) [Example 9-1, (1-{2-[1-(5-chloropyridin-2-yl)ethyl]-5-methylpyrazolo[1,5-a]pyrimidin-7-yl}piperidin-3-yl)methanol]: the EC50 is 1540 nM.
In the case of `Cc1cc(NC2CC(F)(F)C2)n2nc(C(C)c3ccc(Cl)cn3)cc2n1` (centres unmarked) [Example 9-2, 2-[1-(5-chloropyridin-2-yl)ethyl]-N-(3,3-difluorocyclobutyl)-5-methylpyrazolo[1,5-a]pyrimidin-7-amine] it was 1600 nM; in that of `Cc1cc(N2CCC[C@H](O)C2)n2nc(C(C)c3ccc(Cl)cn3)cc2n1` (stereo partly drawn) [Example 9-3, (3S)-1-{2-[1-(5-chloropyridin-2-yl)ethyl]-5-methylpyrazolo[1,5-a]pyrimidin-7-yl}piperidin-3-ol], 2020 nM; in that of `Cc1cc(N2CCCC(F)(F)C2)n2nc(C(C)c3ccc(Cl)cn3)cc2n1` (centres unmarked) [Example 9-4, 2-[1-(5-chloropyridin-2-yl)ethyl]-7-(3,3-difluoropiperidin-1-yl)-5-methylpyrazolo[1,5-a]pyrimidine], 628 nM.
Then `Cc1cc(N2CCC(F)(F)C2)n2nc(C(C)c3ccc(Cl)cn3)cc2n1` (centres unmarked) [Example 9-5, 2-[1-(5-chloropyridin-2-yl)ethyl]-7-(3,3-difluoropyrrolidin-1-yl)-5-methylpyrazolo[1,5-a]pyrimidine], with 1660 nM; and `Cc1cc(NC(C)(C)C)n2nc(C(C)c3ccc(Cl)cn3)cc2n1` (centres unmarked) [Example 9-6, N-tert-butyl-2-[1-(5-chloropyridin-2-yl)ethyl]-5-methylpyrazolo[1,5-a]pyrimidin-7-amine], with 798 nM.
In the case of `Cc1cc(NC2(C)CC2)n2nc(C(C)c3ccc(Cl)cn3)cc2n1` (centres unmarked) [Example 9-7, 2-[1-(5-chloropyridin-2-yl)ethyl]-5-methyl-N-(1-methylcyclopropyl)pyrazolo[1,5-a]pyrimidin-7-amine] it was 1320 nM; in that of `Cc1cc(NC2CC(F)C2)n2nc(C(C)c3ccc(Cl)cn3)cc2n1` (centres unmarked) [Example 9-8, 2-[1-(5-chloropyridin-2-yl)ethyl]-N-(3-fluorocyclobutyl)-5-methylpyrazolo[1,5-a]pyrimidin-7-amine], 9300 nM; in that of `Cc1cc(N2CC3(CCOCC3)C2)n2nc(C(C)c3ccc(Cl)cn3)cc2n1` (centres unmarked) [Example 9-9, 2-[1-(5-chloropyridin-2-yl)ethyl]-5-methyl-7-(7-oxa-2-azaspiro[3.5]non-2-yl)pyrazolo[1,5-a]pyrimidine], more than 10000 nM.
For `CC(=O)N[C@@H]1CCN(c2cc(C)nc3cc(C(C)c4ccc(Cl)cn4)nn23)C1` (stereo partly drawn) [Example 9-10, N-[(3R)-1-{2-[1-(5-chloropyridin-2-yl)ethyl]-5-methylpyrazolo[1,5-a]pyrimidin-7-yl}pyrrolidin-3-yl]acetamide], the half-maximal effective concentration (EC50) is more than 10000 nM.
Consider `CC(=O)N[C@H]1CCN(c2cc(C)nc3cc(C(C)c4ccc(Cl)cn4)nn23)C1` (stereo partly drawn) [Example 9-11, N-[(3S)-1-{2-[1-(5-chloropyridin-2-yl)ethyl]-5-methylpyrazolo[1,5-a]pyrimidin-7-yl}pyrrolidin-3-yl]acetamide], for which the EC50 is more than 10000 nM.
As for `Cc1cc(N2CC[C@@H](NS(C)(=O)=O)C2)n2nc(Cc3ccc(Cl)cc3)cc2n1` [Example 10-1, N-{(3R)-1-[2-(4-chlorobenzyl)-5-methylpyrazolo[1,5-a]pyrimidin-7-yl]pyrrolidin-3-yl}methanesulfonamide], the EC50 is more than 10000 nM.
As to `Cc1cc(N2CCC[C@H](NS(C)(=O)=O)C2)n2nc(Cc3ccc(Cl)cc3)cc2n1` [Example 11-1], the concentration for a half-maximal effect (EC50) was 3510 nM.
`Cc1cc(N2CCCCC2CCO)n2nc(Cc3cccc(Cl)c3)cc2n1` (centres unmarked) [Example 12-1, 2-{1-[2-(3-chlorobenzyl)-5-methylpyrazolo[1,5-a]pyrimidin-7-yl]piperidin-2-yl}ethanol]: the EC50 turned out to be 5670 nM.

For orientation: EC50 means the concentration needed to bring the measured effect to its halfway point.
